According to patent publication US8664233B2, “Substituted 5H-pyrimido[5,4-B]indoles, method for the production thereof and use thereof for treating non-solid malignant tumors of the blood-producing system” (The Medicines Company (Leipzig) GmbH, priority 2006, dated 2014):
Where two headings read alike, the source gives them in different places.

How the values were obtained:
B-CLL cells [1] = assay: formazane reduction assay (MMT test), cytotoxicity after 24 h incubation of the patient's blood; assay type: cell-based, human
Method: Compounds according to the invention were tested as inductors of a cytotoxic reaction, i.e. triggering of apoptosis, in the case of chronic lymphatic leukemia (B-CLL).
Fludarabine, which is used in B-CLL as a standard chemotherapeutic agent, was employed as a positive control. A cytotoxicity up to a maximum of 60% was achievable under equal test conditions.
The cytotoxicity of the B-CLL cells was determined by means of a commercially available formazane reduction assay (MMT test) after 24 h of incubation of the patient's blood with the active substances.

B-CLL cells [2] = assay: cytotoxicity / vitality of purified primary B-CLL cells (CellTiter-Glo ATP assay, resazurine vitality test), 72 h; assay type: cell-based; conditions: Homo sapiens; leukemic B lymphocytes of a B-CLL patient with an 11q deletion (FIG. 1)
Text: In order to check the selective effect of various substances as to the vitality of human cells, isolated B cells from patients suffering from chronic B cell leukemia (B-CLL) and also purified […] (PBMC) and erythrocytes from healthy donors were investigated. The permanent human EHEB B-CLL cell line was selected as a model system for the chronic lymphatic B cell leukemia. It is known in the literature that as compared to primary B-CLL cells the EHEB cells respond in a much more insensitive fashion to proapoptotic signals. The cells were incubated with concentration series of the test substances for 3 days and the vitality of the cells was determined by means of CellTiter-Glo™ ATP assay (Promega, catalog number G7571) according to the manufacturer's instructions after this period.
Primary tumor cells are isolated from whole blood by means of density gradient centrifugation. To this end, the patient's whole blood is incubated with 50.0 μl human B cell enrichment cocktail (RosetteSep; Stem Cell Technology, Cat #15064) per milliliter whole blood at room temperature (RT) for 20 min. […] Having determined the cell number by means of trypan blue staining (trypan blue solution of Sigma-Aldrich, catalog no. T-8154) the desired number of test plates can be prepared. […]

B-CLL cells [3] = assay: synergistic effect with fludarabine on induction of apoptosis in purified B-CLL cells; assay type: cell-based, human
Text: As shown, a combination of an exemplary substance according to the invention with fludarabine already yields a total toxicity of the B-CLL cells of over 80% with a 10% toxic concentration of each partner. In the case of an additive effect of both substances, only about 20% toxicity could be expected. If the concentration of both substances is increased such that each substance kills 20% of the cells in a separate test, a toxicity of almost 100% is obtained in this synergy experiment.

caspases 3, 7 and 9 = assay: caspase-Glo 3/7 and caspase-Glo 9 assays in EHEB cells; assay type: cell-based, human; conditions: 4.5 and 24 hours (FIG. 2)
Method: In order to determine the specific induction of programmed cell death (apoptosis), a detection thereof was carried out by means of caspase-3/7 activity; the caspase-3/7 activity is described in the literature as a safe detection of apoptosis.
The EHEB cells were prepared as described above and incubated with three concentration dilutions, each in triple determination, for 4.5 and 24 hours. Thus, substance final concentrations were selected from 50.0, 10.0 and 2.00 μM for the 4 hour batches as well as 10.0, 1.00 and 0.50 μM for the 24 hour batches. In this connection, staurosporine in a final concentration of 2.00 μM (4 hour batches) and 0.50 μM (24 hour batches) acted as the positive control. In order to detect the caspase-3/7 activity, the caspase-Glo 3/7 and caspase-Glo 9 assays of Promega company were used; in this connection, the enzyme activity was determined by means of a luminescence signal which was recorded with the FluostarOPTIMA measurement device (BMG Labtechnologies).
The results were evaluated by a comparison between the relative luminescence intensity of the test substances and the positive control (staurosporine=100%) by means of the Excel program. The relative intensities for the substances according to the invention are up to 100% with an inhibitor concentration between 1 and 50 μM. […]

Row | SMILES | cytotoxicity (apoptosis) of the leukemia cells, maximum reached (B-CLL cells [1]) | further results
1 | CCOc1nc(N2CCNCC2)c2[nH]c3cc(-c4ccncc4)ccc3c2n1 [2-ethoxy-4-(piperazin-1-yl)-7-(pyridin-4-yl)-5H-pyrimido[5,4-b]indole] | up to 100% | –
2 | CCOc1nc(N2CCNCC2)nc2c1[nH]c1cc(-c3cccc(C(=O)O)c3)ccc12.Cl [3-(4-ethoxy-2-(piperazin-1-yl)-5H-pyrimido[5,4-b]indol-7-yl)benzoic acid hydrochloride] | up to 100% | –
3 | Nc1nc(F)nc2c1ncn2[C@@H]1O[C@H](CO)[C@@H](O)[C@@H]1O [Fludarabine, fludarabine, reference compound] | – | cytotoxicity (apoptosis) of the leukemia cells, maximum reached (B-CLL cells [1]; ex vivo, blood of B-CLL patients, 24 h incubation): ≤ 60%
4 | CCOc1nc(N2CCNCC2)nc2c1[nH]c1cc(-c3ccc(OC)c(OC)c3)ccc12 [4-ethoxy-2-(piperazin-1-yl)-7-(3,4-dimethoxy-phenyl)-5H-pyrimido[5,4-b]indole] | up to 100% | –
5 | CCOc1nc(N2CCNCC2)nc2c1[nH]c1cc(-c3ccc(C(=O)O)cc3)ccc12.Cl [4-(4-ethoxy-2-(piperazin-1-yl)-5H-pyrimido[5,4-b]indol-7-yl)benzoic acid hydrochloride] | up to 100% | –
6 | CCOc1nc(N2CCNCC2)nc2c1[nH]c1cc(-c3ccncc3)ccc12 [4-ethoxy-2-(piperazin-1-yl)-7-(pyridin-4-yl)-5H-pyrimido[5,4-b]indole] | up to 100% | IC50 (B-CLL cells [2]): 80 nM; total toxicity of the B-CLL cells (B-CLL cells [3]; combination with fludarabine, 10% toxic concentration of each partner): over 80%; toxicity of the B-CLL cells (B-CLL cells [3]; combination with fludarabine, each substance kills 20% of the cells in a separate test): ~100%; effect of combination with fludarabine on the induction of apoptosis (B-CLL cells [3]; purified B-CLL cells (FIG. 4)): synergistic effect; activation of caspases 3, 7 and 9 (caspases 3, 7 and 9): activating caspases 3, 7, and 9
7 | CCOC(=O)c1ccc(-c2ccc3c(c2)[nH]c2c(OCC)nc(N4CCNCC4)nc23)cc1 [4-(4-ethoxy-2-(piperazin-1-yl)-5H-pyrimido[5,4-b]indol-7-yl)benzoic acid ethyl ester] | up to 100% | –
8 | CCOc1nc(N2CCN(C)CC2)nc2c1[nH]c1cc(-c3ccncc3)ccc12 [4-ethoxy-2-(4-methylpiperazin-1-yl)-7-(pyridin-4-yl)-5H-pyrimido[5,4-b]indole] | up to 100% | –
9 | CCOc1nc(N2CCNCC2)nc2c1[nH]c1cc(N3CCOCC3)ccc12 [4-ethoxy-7-morpholino-2-(piperazin-1-yl)-5H-pyrimido[5,4-b]indole] | up to 100% | –
10 | CCOc1nc(N2CCNCC2)nc2c1[nH]c1cc(-c3ccc(O)cc3)ccc12.Cl [4-(4-ethoxy-2-(piperazin-1-yl)-5H-pyrimido[5,4-b]indol-7-yl)phenol-hydrochloride] | up to 100% | –
11 | OCCOc1nc(N2CCNCC2)nc2c1[nH]c1cc(-c3ccncc3)ccc12 [2-{2-(piperazin-1-yl)-7-(pyridin-4-yl)-5H-pyrimido[5,4-b]indol-4-yloxy}ethanol] | up to 100% | –
12 | CCOc1nc(N2CCNCC2)nc2c1[nH]c1cc(-c3cccc(C(=O)OC)c3)ccc12 [3-(4-ethoxy-2-(piperazin-1-yl)-5H-pyrimido[5,4-b]indol-7-yl)benzoic acid methyl ester] | up to 100% | –
13 | CCOc1nc(N2CCNCC2)nc2c1[nH]c1cc(-c3ccc(N)nc3)ccc12 [4-ethoxy-2-(piperazin-1-yl)-7-(2-aminopyridin-5-yl)-5H-pyrimido[5,4-b]indole] | up to 100% | –
14 | CCOc1nc(N2CCNCC2)nc2c1[nH]c1ccc(-c3ccncc3)cc12 [4-ethoxy-2-(piperazin-1-yl)-8-(pyridin-4-yl)-5H-pyrimido[5,4-b]indole] | up to 100% | –
15 | CCOc1nc(N2CCNCC2)nc2c1[nH]c1cc(-c3ccccc3N)cc(OC)c12 [Example 1, 2-(4-ethoxy-9-methoxy-2-(piperazin-1-yl)-5H-pyrimido[5,4-b]indol-7-yl)benzene amine] | up to 100% | –
16 | CCOc1nc(N2CCNCC2)nc2c1[nH]c1cc(-c3ccncc3)cc(OC)c12 [4-ethoxy-9-methoxy-2-(piperazin-1-yl)-7-(pyridin-4-yl)-5H-pyrimido[5,4-b]indole] | up to 100% | –
17 | CCOc1nc(N2CCNCC2)nc2c1[nH]c1cc(-c3cccnc3)ccc12 [4-ethoxy-2-(piperazin-1-yl)-7-(pyridin-3-yl)-5H-pyrimido[5,4-b]indole] | up to 100% | –
18 | CCOc1nc(N2CCNCC2)nc2c1[nH]c1c(-c3ccncc3)cccc12 [Example 8, 4-ethoxy-2-(piperazin-1-yl)-6-(pyridin-4-yl)-5H-pyrimido[5,4,-b]indole] | up to 100% | –
